Data published in article PMC4537050, “A long pentraxin-3-derived pentapeptide for the therapy of FGF8b-driven steroid hormone-regulated cancers” (Oncotarget, 2015).

Legend:
[1] = biological target: T1, FGF4 (Homo sapiens, UniProt P08620); assay: SPR analysis of FGF/ARPCA interaction, FGF4; type: binding; conditions: immobilized FGF4
T1 sequence (P08620 31-206): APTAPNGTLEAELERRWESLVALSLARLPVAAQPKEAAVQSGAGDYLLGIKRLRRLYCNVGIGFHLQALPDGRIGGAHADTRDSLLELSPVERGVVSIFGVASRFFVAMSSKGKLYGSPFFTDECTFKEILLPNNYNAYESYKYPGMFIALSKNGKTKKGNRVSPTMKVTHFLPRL

[2] = biological target: T2, FGF10 (Homo sapiens, UniProt O15520); assay: SPR analysis of FGF/ARPCA interaction, FGF10; type: binding; conditions: immobilized FGF10
T2 sequence (O15520 38-208): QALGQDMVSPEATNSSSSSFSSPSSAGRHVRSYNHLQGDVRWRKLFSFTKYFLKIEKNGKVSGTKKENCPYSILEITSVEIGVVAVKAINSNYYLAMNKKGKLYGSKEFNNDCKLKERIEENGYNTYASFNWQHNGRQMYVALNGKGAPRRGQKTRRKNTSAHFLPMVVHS

[3] = biological target: T3, FGF23 (Homo sapiens, UniProt Q9GZV9); assay: SPR analysis of ARPCA on immobilized FGF23; type: binding; conditions: data not shown
T3 sequence (Q9GZV9 25-251): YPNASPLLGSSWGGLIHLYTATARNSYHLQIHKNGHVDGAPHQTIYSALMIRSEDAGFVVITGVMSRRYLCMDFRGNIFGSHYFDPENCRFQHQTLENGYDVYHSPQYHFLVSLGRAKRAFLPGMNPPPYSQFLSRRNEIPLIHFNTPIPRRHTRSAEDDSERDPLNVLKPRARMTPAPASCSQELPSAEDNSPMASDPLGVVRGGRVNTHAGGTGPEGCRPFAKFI

[4] = biological target: T4, HSPG/FGF8b/FGFR1 ternary complexes (Homo sapiens, UniProt P55075); assay: HSPG/FGF8b/FGFR1 mediated cell-cell adhesion assay; type: cell-based; conditions: 30 ng/ml FGF8b, increasing peptide concentrations
T4 construct: purchased PeproTech; host or cells: FGF8b was added to A745-CHO-flg-1A-luc cells (FGFR1 IIIc transfected) on a glutaraldehyde-fixed CHO-K1 monolayer (endogenous HSPGs)
T4 sequence (P55075 23-215 isoform P55075-3 limits assumed): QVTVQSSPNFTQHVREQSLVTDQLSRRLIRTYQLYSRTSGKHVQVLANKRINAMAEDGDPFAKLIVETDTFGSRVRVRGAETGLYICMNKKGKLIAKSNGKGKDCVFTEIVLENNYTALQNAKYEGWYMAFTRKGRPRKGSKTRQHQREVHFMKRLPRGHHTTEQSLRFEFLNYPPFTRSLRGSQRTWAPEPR
Procedure: This assay was performed as described with minor modifications. Briefly, wild-type CHO-K1 cells were seeded in 24-well plates at 150000 cells/cm^2. After 24 h, cell monolayers were washed with PBS and incubated with 3% glutaraldehyde in PBS for 2 h at 4°C. Fixation was stopped with 0.1 M glycine and cells were washed extensively with PBS. Then, A745-CHO-flg-1A-luc cells (50000 cells/cm^2) were added to CHO-K1 monolayers in serum-free medium plus 10 mM EDTA with or without 30 ng/ml FGF8b in the absence or presence of increasing concentrations of the ARPCA or ARPVA peptides. After 2 h of incubation at 37°C, unattached cells were removed by washing twice with PBS, and A745-CHO-flg-1A-luc bound to the CHO-K1 monolayer were solubilized and luciferase activity was quantified. All experiments were performed in triplicate.

[5] = system: chick embryo chorioallantoic membrane (CAM); assay: Chick embryo CAM assay with growth factor alginate implants; type: in vivo; conditions: vessels counted at day 14
Procedure: Alginate plugs containing vehicle, FGF8b (4.5 pmoles/embryo), VEGF-A (4.5 pmoles/embryo) or S115 cells (2.5×10^4/embryo) in the absence or presence of ARPCA (80 or 140 pmoles/embryo) or ARPVA (140 pmoles/embryo) were placed on the CAM of fertilized white leghorn chicken eggs at day 11 of incubation. At day 14, newly formed blood microvessels converging toward the implant were counted by two observers in a double-blind fashion at 5x magnification under a stereomicroscope (STEMI-SR, x2/0.12; Zeiss) as described.

[6] = system: S115 tumor grafts; assay: Murine s.c. alginate implant assay, S115 cells; type: in vivo, athymic Nu/Nu male mice; conditions: i.p. 100 mg/kg every other day, plugs harvested day 14, compared to ARPVA-treated animals
Procedure: Eightweek-old athymic Nu/Nu or C57BL/6 male mice were injected s.c. with 450 μl of 3% (w/v) sodium alginate solution (alginic acid dissolved in LPS-free PBS) containing 5×10^6 S115 or 8×10^6 TRAMP-C2 cells, respectively. Mice were treated i.p. with ARPCA or ARPVA (100 mg/kg) on day 7, 9, 11 and 13 after implant. On day 14, alginate gels were harvested, weighted, embedded in OCT-compound and immediately frozen to be processed for histological analysis. For immunofluorescence stainings, sections (5 μm thick) were obtained with a cryostat microtome, air dried and fixed with acetone (for 5 min at 4°C). After blocking with 1% BSA (Bovine Serum Albumin) in PBS for 10 minutes, sections were incubated with primary antibodies, rabbit anti-FGFR1 (Santa Cruz Biotechnology), rabbit anti-phospho FGFR1 (Santa Cruz Biotechnology), Ki67 (Dako, Milano, Italy, EU) or CD31 (BD Biosciences Pharmingen, San Diego, CA, USA). After washing with PBS containing 0.05% Tween 20, sections were incubated with the appropriate Alexa Fluor 488 or Alexa Fluor 594-conjugated secondary antibody (Invitrogen). After mounting in a drop of anti-bleaching mounting medium containing DAPI (Vectashield, Vector Laboratories, Burlingame, CA, USA), sections were examined under a Zeiss Fluorescence Axiovert 200M microscope (Carl Zeiss).

[7] = system: S115 tumors; assay: In vivo tumor therapy study, S115 tumors; parameters: species or system athymic Nu/Nu male mice; conditions: s.c. S115 cells, i.p. 100 mg/kg every other day starting at day 8, followed for the next 32 days
Procedure: Eight week old C57BL/6 male mice were injected s.c. with 8×10^6 TRAMP-C2 cells, and eight week old athymic Nu/Nu male mice were injected s.c. with 5×10^6 S115 cells. All injections were performed in 200 μl total volume of PBS into the dorsolateral flank. When tumors were palpable treatment was performed every other day by i.p. injection of ARPCA, ARPVA (both at 100 mg/kg) or vehicle (PBS) in 100 μl final volume. Tumors were measured in two dimensions and tumor volume was calculated according to the formula V=(D × d^2)/2, where D and d are the major and minor perpendicular tumor diameters, respectively. At the end of the experimental procedure tumors were harvested, weighted and photographed.

[8] = In vivo ARPCA toxicity studies
Procedure: Eight week-old C57BL/6 mice were treated i.p. with 100 mg/kg of ARPCA every other day for two weeks. During this period, animals were weighted for body weight variation analysis. At the end of treatment, whole blood and serum were harvested and analysed for blood components, biochemical serum parameters and circulating levels of FGF23. The serum levels of FGF23 were assessed by ELISA (Uscn Life Science Inc., Wuhan, PRC, Asia) according to manufacturer's instructions. Untreated mice were used as reference/control.

Substance: Ac-ARPCA-NH2 [ARPCA, Ac-ARPCA-NH2]
- Kd, FGF4 [1]: n.b.
- Kd, FGF10 [2]: n.b.
- interaction with immobilized FGF23 [3]: did not show any interaction
- inhibitory activity on FGF8b-mediated cell-cell adhesion (in words) [4]: dose-dependent inhibitory activity
- angiogenic response elicited by FGF8b in the CAM ([5]; 4.5 pmoles FGF8b/plug, ARPCA 80 or 140 pmoles, ARPVA 140 pmoles): significantly reduced
- angiogenic response elicited by VEGF-A in the CAM ([5]; 4.5 pmoles VEGF-A/plug): No inhibitory effect
- CD31+ neovascularization in S115 tumor grafts [6]: efficiently inhibited
- FGFR1 phosphorylation in S115 tumor grafts [6]: efficiently inhibited
- Ki67+ proliferation index in S115 tumor grafts [6]: efficiently inhibited
- S115 tumor growth, long-term experiment [7]: suppresses S115 tumor growth
- body weight ([8]; i.p. 100 mg/kg every other day for two weeks): did not affect
- hematologic parameters, blood serum components and FGF23 serum levels (in words) ([8]; long-term administration, i.p. 100 mg/kg every other day): did not affect
